Measurements taken from PubChem BioAssay (NCI).
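All cell lines were grown in 96-well plates and treated with compound for 48 hours. TGI: concentration producing complete growth inhibition.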

Columns and labels:
Assay in all cases: NCI-60 cell line screen, 48 h
HS 578T breast = system: HS 578T breast
MDA-MB-435 = system: MDA-MB-435
OVCAR-8 ovarian = system: OVCAR-8 ovarian
MALME-3M melanoma = system: MALME-3M melanoma
HL-60(TB) leukemia = system: HL-60(TB) leukemia
UO-31 renal = system: UO-31 renal
OVCAR-5 ovarian = system: OVCAR-5 ovarian
IGROV1 ovarian = system: IGROV1 ovarian
SF-268 CNS = system: SF-268 CNS
CAKI-1 renal = system: CAKI-1 renal
T-47D breast = system: T-47D breast
SK-MEL-2 melanoma = system: SK-MEL-2 melanoma
NCI-H23 lung = system: NCI-H23 lung
COLO 205 colon = system: COLO 205 colon
OVCAR-4 ovarian = system: OVCAR-4 ovarian
UACC-62 melanoma = system: UACC-62 melanoma
TK-10 renal = system: TK-10 renal
MDA-MB-231 breast = system: MDA-MB-231 breast
A549 NSCLC = system: A549 NSCLC
UACC-257 melanoma = system: UACC-257 melanoma

SMILES | TGI (HS 578T breast) [µM] | TGI (MDA-MB-435) [µM] | TGI (OVCAR-8 ovarian) [µM] | TGI (MALME-3M melanoma) [µM] | TGI (HL-60(TB) leukemia) [µM] | TGI (UO-31 renal) [µM] | TGI (OVCAR-5 ovarian) [µM] | TGI (IGROV1 ovarian) [µM] | TGI (SF-268 CNS) [µM] | TGI (CAKI-1 renal) [µM] | TGI (T-47D breast) [µM] | TGI (SK-MEL-2 melanoma) [µM] | TGI (NCI-H23 lung) [µM] | TGI (COLO 205 colon) [µM] | TGI (OVCAR-4 ovarian) [µM] | TGI (UACC-62 melanoma) [µM] | TGI (TK-10 renal) [µM] | TGI (MDA-MB-231 breast) [µM] | TGI (A549 NSCLC) [µM] | TGI (UACC-257 melanoma) [µM]
C(=N\Nc1ccc(-c2nc3ccccc3[nH]2)cc1)/c1c(-c2ccc(Cc3ccccc3)cc2)[nH]c2ccccc12 | 23 | > 27.4 | > 54.7 | 23.2 | > 63.5 | 49.2 | > 100 | 19 | 10 | > 59.8 | 98.4 | 20 | 59.5 | 19.8 | > 93.6 | > 54.3 | > 95.4 | 60.6 | > 100 | > 89.1
O=C1Nc2ccccc2Cn2c1cc1oc(-c3ccccc3)cc12 | 44.3 | > 100 | > 100 | > 100 | > 100 | – | > 100 | > 100 | 72.3 | > 100 | 92.6 | > 100 | > 100 | > 100 | > 100 | > 100 | > 100 | 87.2 | > 100 | > 100
COC(=O)/C=C\C(C#N)(C#N)N=Cc1ccccc1 | 36.2 | 5.22 | 4.38 | 4.88 | 6.42 | 7.23 | 38.7 | 25.9 | 11.4 | 7.31 | 3.88 | 32.9 | 25.3 | 2.97 | 13.5 | 28 | 5.54 | 30.9 | 34.3 | 12.8
Cc1ccc(C(=O)N(Cc2ccccc2)Cc2ccccc2)cc1N=NN(C)C | 75.2 | 54.8 | > 100 | 40.6 | 61.9 | > 71 | > 100 | > 100 | > 100 | > 100 | 75 | 9.79 | 58.7 | 44.7 | > 87.4 | > 31.6 | > 100 | 78 | > 100 | 53.4
COC(=O)C1=C(OC(=O)/C=C/c2ccccc2)C(C(=O)OC)[C@@]2(O)[C@@H](C(=O)OC)[C@H](C)C[C@@H]1[C@@H]2C(=O)OC (some centres undefined) | 50.1 | > 100 | 46.2 | 65.5 | > 100 | > 100 | 46.1 | 63.3 | 92 | 32.6 | 84.4 | 91.1 | 48.8 | 74.8 | > 100 | 33.1 | > 100 | 43.9 | 58.4 | 90.9
Cc1ccc(-n2cc(-c3ccc(Cl)cc3)c3c(N/N=C4\SCC(=O)N4C)ncnc32)cc1 | 21.3 | 40 | > 100 | 9.48 | > 100 | > 100 | > 100 | > 100 | > 100 | 32.3 | > 100 | 6.18 | 45.7 | 37.5 | 8.03 | 11.2 | 8.18 | 23.8 | 26.6 | 27.1
C=CC(OC(C)=O)c1ccc(OC(=O)C(C)C)c(OC)c1 (centres undefined) | > 80.6 | 15.6 | 11.1 | 4.43 | > 23.6 | 10.9 | 6.29 | 28.7 | 38.9 | 3.65 | 21.9 | 15.8 | 47.7 | 7.65 | 16.2 | 31.5 | 11.5 | 18.4 | 38.7 | 23.5
COc1cc(C2SC(C)C(=O)N2c2ccc(-c3csc(NS(=O)(=O)c4ccc(Cl)c(OC)c4)n3)cc2)ccc1O (centres undefined) | > 100 | > 100 | > 100 | 82.4 | 95.7 | > 100 | > 100 | > 100 | 84.6 | > 100 | > 100 | > 100 | 53.6 | > 100 | 79.9 | 55.3 | > 100 | > 100 | > 100 | > 100
CCCCCc1nnc(NS(=O)(=O)c2ccc(NC(=O)OCC(C)C)cc2)s1 | > 100 | > 100 | > 100 | 94.6 | > 100 | > 100 | > 100 | 97.7 | > 100 | > 100 | > 100 | 53.5 | > 100 | 41.6 | 56.5 | > 100 | > 100 | > 100 | > 100 | > 100
O=[N+]([O-])c1ccc(C(Nc2ccccc2)P(c2ccccc2)c2ccccc2)cc1 (centres undefined) | > 100 | > 100 | > 100 | > 100 | > 100 | > 100 | > 100 | > 100 | > 100 | > 100 | > 100 | > 100 | > 100 | > 100 | > 100 | > 100 | > 100 | > 100 | > 100 | > 100
COC1CC(OC2C(C)OC(OC3C(C)OC(OC4C(O)CC(O[C@H]5CC[C@@]6(C)C(=CC[C@]7(O)[C@@H]6C[C@@H](OC(C)=O)[C@@]6(C)[C@]7(O)CC[C@@]6(O)C(C)=O)C5)OC4C)CC3OC)CC2OC)OC(C)C1O (some centres undefined) | > 12.5 | > 12.5 | > 12.5 | > 12.5 | > 12.5 | > 12.5 | > 12.5 | > 12.5 | > 12.5 | > 12.5 | > 12.5 | > 12.5 | > 12.5 | > 12.5 | > 12.5 | > 12.5 | > 12.5 | > 12.5 | > 12.5 | > 12.5
